Experiments:
CHO-K1 cells = assay: Cellular viability assay (MTT assay, resazurin readout); format: cell-based; details: 10 µM and below, after 24 h
Description: For MTT assays in presence of activators, CHO-K1 cells were incubated in Ham's F-12 medium containing 10 % fetal bovine serum and 1.0 % penicillin streptomycin at 37 °C in a 5 % CO2 for 24 hours. CHO-K1 cells were dispersed in a 96-well flat bottom tissue culture treated plates (Eppendorf) at density of 5×10^3 cells/well (per 100 µL) and incubated in Ham's F-12 containing 10 % (v/v) fetal bovine serum at 37 °C in a 5 % CO2 incubator for 12 h to allow cell adhesion. Then, cells were incubated with POM, B12Br12^2-, or PyBu (10 µM, 50 µM, 100 µM) for another 24 h. After this incubation time, 20 µL resazurin solution (0.15 mg/mL) was added to cells and incubated for another 3 h. Finally, the plates were read at λem = 590 nm (λex = 560 nm) using a JASCO fluorometer FP-8500.
The cell viability was evaluated by the following equation: Cells viability = (FIsample −FIblank)/(FIcontrol −FIblank) × 100% [formula]
Where, FIsample is the fluorescence intensity of cells incubated with different compounds, FIblank is the fluorescence intensity of medium, and FIcontrol is the fluorescence intensity of cells in absence of any compound.

[1] = test system: oligopeptide (heptaArg, protamine, polyArg or heptaLys); assay: Isothermal titration calorimetry, POM-cargo interaction (summary statement); format: binding; details: ITC, POM and cargos
Description: (§1) All experiments were performed with a VP-ITC MicroCalorimeter from MicroCal, Int,. at atmospheric pressure and 298.15 K. Solutions were degassed and thermostatic prior the titration experiments in a ThermoVac accessory. A constant volume of POM ([PVW11]^4- or [SiMoW11]^4-) (10 µL per injection) was injected into the oligopeptide solution (heptaArg, protamine, polyArg or heptaLys) in 10 mM Mes, pH 5.5 to determine the apparent binding affinity of [PVW11]^4- and [SiMoW11]^4- with the oligopeptides. Dilution heats were determined by titration of the POM into buffer and subtracted from the reaction heat. The neat reaction heat was fitted with Origin 7.0 software by using the "one-set-of-sites" model to obtain the complex stability constant (Ka) and molar reaction enthalpy (ΔH°). The free energy (ΔG°) and entropy changes (ΔS°) were obtained according to the relation: ΔG° = - R TInKa = ΔH°-TΔS°.
To affect membrane transport, any carrier needs to display an affinity towards the cargo as well as towards the lipid bilayer. Accordingly, the interaction between [PVW11]^4- and [SiMoW11]^4- and the cargos was analyzed by isothermal titration calorimetry (ITC). […] The strong but reversible intermolecular interactions between the low-charged POMs and the cationic peptides established by ITC present an interesting finding. […]

protamine = assay: Isothermal titration calorimetry, POM into protamine; format: binding; details: 10 mM Mes, pH 5.5, 298.15 K
Description: as §1

[2] = Transport experiments in CF-loaded anionic vesicles; format: biochemical; details: DMPE/DPPG/CHOL (anionic), 13 µM phospholipids, 10 µM heptaArg
Description: Anionic vesicles in neutral media: Anionic vesicles were prepared analogously except for the lipid composition, DMPE/DPPG/CHOL (4.4/10.4/2.6 mg, 1/2/1 molar ratio) in a 1:1 mixture of CHCl3 and MeOH (1mL), the hydration (60 mins) and extrusion were performed at 55 °C, and the employed buffers were 100 mM CF, 10 mM Tris, pH 7.4 and 10 mM Tris, 140 mM NaCl, pH 7.4 for rehydration and elution, respectively.
Vesicles stock solutions (5-10 µL) were diluted with the corresponding buffer in a disposable plastic cuvette and gently stirred (total volume 2000 µL, final lipid concentration 13 µM). […] Fluorescence intensities were normalized to fractional emission as: I(t) = (It −I0)/(I∞ −I0) [formula]
Where I0 = It before POM addition and […] = I∞ after lysis. For Hill analysis, It before lysis was defined as transport activity, Y, and plotted against POM concentration, c, and fitted to the Hill equation (2), to afford the activity in absence of POM, Y0, the maximal activity, Ymax, the concentration needed to achieve 50 % of maximal activity, EC50, and the Hill coefficient, n. Y = Y0 + (Ymax −Y0)/(1 + (((EC50)/(c)))^n) [formula]
In the transport measurements, where different carriers (POMs) are tested with the same cargo, the activator efficiency (E) is determined by their capacity to transport the impermeable cargo to the intravesicular region and is characterized by Ymax, its maximal activity, and EC50, the effective activator concentration. An ideal carrier reaches high Ymax at low EC50. To count both factors, the activator efficiency is defined as: E = Ymax (pEC50)/(f) [formula] were pEC50 is the negative logarithm of the EC50, and fa scaling factor, which was set to 20.6 to calibrate the highest (previously known) activation efficiency, E, as 10.

Substance | viability (CHO-K1 cells) [%] | supramolecular interactions with the cargos (affinity, order of magnitude) [1] | Protamine Ka/ 10^7 (protamine) | E (activation efficiency) [2] | EC50 [2] [µM] | Ymax [2] [%]
K4[α-P^VV^VW^VI11O40]·4H2O [[PVW11]^4-] | ~80 | ~10^7 M^-1 | 25 ± 9 10^7 M-1 | 2.8 | 50 | 45
K4[α-Si^IVMo^VIW^VI11O40]·24H2O [[SiMoW11]^4-] | ~80 | ~10^7 M^-1 | 1.7 ± 0.3 10^7 M-1 | 3.6 | 60 | 61
